This assay has as its system NSCs (HB1.F3-CD). In words: CRAd-S-pk7 replication in NSCs treated with XRT-TMZ (E1A qPCR, titer). It is filed as cell-based, human. The settings on record: day 4; TMZ 100 µM. The protocol:
FIGS. 41A, 41B and 41C show evaluation of CRAd-Survivin-pk7 (CRAd-S-pk7) replication in neural stem cells (NSCs) treated with XRT-TMZ according to one embodiment. Viral replication of CRAd-S-pk7 was measured by quantitative real-time polymerase chain reaction and presented as a number of viral E1A copies per nanogram of DNA from infected NSCs. (FIG. 41A, 41B): Viral replication was evaluated daily up to 96 hours after treatment with 0, 10, 50, or 100 µM TMZ (FIG. 41A) and 0, 2, or 4 Gy of XRT (FIG. 41B). (FIG. 41C): CRAd-S-pk7 viral titer levels 96 hours after XRT-TMZ treatment of infected NSCs. […] Abbreviations: DMSO, dimethyl sulfoxide; IU, infectious units; TMZ, temozolomide; XRT, radiation therapy.
To detect the level of viral replication, NSCs were infected with 50 IU of CRAd-S-pk7 and treated with XRT-TMZ. […] Adenoviral E1A gene expression was quantified via qRTPCR using iQ SYBR Green supermix (Bio-Rad, Hercules, Calif., http://www.bio-rad.com), using primers and protocol previously described (Sonabend et al. 2009). The quantification of infectious viral progeny of NSCs was conducted using the Adeno-X rapid titer kit protocol (Clontech, Mountain View, Calif., http://www.clontech.com) as described elsewhere (Thaci et al. 2012). The titration unit (IU/ml) values quantified through this protocol are similar to plaque-forming units. […]

Turning to `Cn1nnc2c(C(N)=O)ncn2c1=O` [TMZ, temozolomide], the “decrease in E1A copies per nanogram of DNA” value was 3 fold.

(Values after patent US10709745B2, “Tropic cell based virotherapy for the treatment of cancer” (priority 2013, dated 2020).)
